These are literature values, as cited in patent US11524087B2, “Microwave assisted methods and systems for surface decontamination” (priority 2019, dated 2022).

SMILES strings stand for the structures.

On to `[O][Cl+][O-]` [CD, chlorine dioxide], for which the “short term exposure limit (STEL)” value (15-minute) is reported as 0.25 ppm. Where the note is “NIOSH”, the “immediately damaging to life and health (IDLH) level” value is on record as 5 ppm. Also, under “OSHA”, the “permissible exposure limit (PEL)” value is 0.1 ppm.
